Values joined by “and” are separate entries in the source; they are usually repeats but may differ in a detail not shown here. Equal entries are not always repeated.
Test: SPECT/CT image-based normal organ dosimetry (MIRD S-value methodology), Phase I BET-PSMA-121
Type: in vivo, human
Details: for Cumulative image-based absorbed dose, bone marrow, range across patients / Cumulative image-based absorbed dose, salivary glands, range across patients: all cycles; for Cumulative Absorbed Dose, Bone Marrow, % of dose limit: limit 2 Gy; for Cumulative Absorbed Dose, Kidney, % of dose limit: limit 23 Gy; for Cumulative Absorbed Dose, Salivary Glands, % of dose limit: limit 24 Gy
Text: Figure 1 provides a schematic representation of the study. Enrolled patients were sequentially entered into one of the two cohorts. Cohort A received 5.55 GBq (150 mCi) of ^177Lu-rhPSMA-10.1 and Cohort B received 7.40 GBq (200 mCi) of ^177Lu-rhPSMA-10.1. Subsequent doses were delivered at 6-week intervals subject to individual tolerability and safety assessments. Each patient received between one and three cycles, with a maximum of three cycles of treatment being permitted in this initial part of the study. All administrations of ^177Lu-rhPSMA-10.1 were performed using intravenous injection under the supervision of the treating physician.
Multi-bed single-photon emission computed tomography (SPECT)/CT was conducted at 3-, 24-, 48- and 168-hours post-^177Lu-rhPSMA-10.1 administration in each treatment cycle for the estimation of organ and tumour absorbed doses in each patient. Prior to commencement of the study, each investigating site was required to complete a calibration of their dose calibrator and SPECT/CT system to ensure harmonised quantification of the imaging data. Quantitative reconstructions and all dosimetry analyses were carried out centrally by an independent dosimetry vendor (Radiopharmaceutical Imaging and Dosimetry LLC, Baltimore, MD).
The specific absorbed doses (Gy/GBq) in normal organs and tumours were determined using the Medical Internal Radiation Dose (MIRD) Committee S-value methodology. Individual patient organ masses, determined via CT delineation, were scaled to reflect deviations from reference phantom geometry. Cumulative organ absorbed doses (Gy) were calculated across all treatment cycles. Further details on dosimetry methodology are provided in the supplemental materials and have been reported in accordance with EANM guidance.
All patients underwent multi-bed single-photon emission computed tomography (SPECT)/CT at 3-, 24-, 48- and 168-hours post-^177Lu-rhPSMA-10.1 administration during each treatment cycle. The acquisition parameters are shown in Supplemental Table S1. All images were centrally reconstructed in 3D-RD-S using the iterative Ordered Subsets Expectation-Maximization (OSEM) algorithm with 40 iterations and 5 subsets. Attenuation, scatter, and the Collimator-Detector Response Function (CDRF) were modelled during the iterative process using a rotation-based projector. CT-based attenuation compensation was performed using the attenuation map generated from the CT image. Scatter was modelled using the Effective Source Scatter Estimation (ESSE) method.
Reconstructed images were converted to activity concentration units (Becquerel (Bq)/millilitre (mL)) using the calibration factor generated for each individual imaging system. Organ masses were individually determined using CT-based delineations and longitudinal SPECT activity statistics were based on these same delineations.
Time integrated activity coefficients (TIACs) were calculated for each target tissue. This was done by fitting each time–activity curve with an exponential function (mono, bi, or exponential uptake and washout) and integrating from time 0 to infinity. The simpler function was preferred provided the fit was adequate ([…]).
The TIAC in the bone marrow was derived from contours drawn around the marrow inside lumbar vertebrae L3–L5. Where lesions were present in the lumbar area, contours were drawn around either the femur heads, scapula or sternum depending on the anatomical coverage. The TIAC was then divided by the marrow mass in this region to give the TIAC concentration. The total bone marrow TIAC was be obtained as the product of this concentration and the standard International Commission on Radiological Protection (ICRP) bone marrow mass.
The S-value methodology was used to estimate the target tissue dose. […]

[1] = Cohort A (5.55 GBq/cycle), 3 patients
[2] = Cohort B (7.40 GBq/cycle), 10 patients
[3] = Patient 1, Cohort A, 3 cycles, 16.20 GBq cumulative
[4] = Patient 2, Cohort A, 2 cycles, 11.57 GBq cumulative
[5] = Patient 3, Cohort A, 3 cycles, 16.58 GBq cumulative
[6] = Patient 4, Cohort B, 3 cycles, 22.94 GBq cumulative

Q: With `CC(C)(C)[Si](F)(c1ccc(C(=O)NC[C@@H](NC(=O)CN2CCN(CC(=O)[O-])CCN(CC(=O)[O-])CCN(CC(=O)[O-])CC2)C(=O)N[C@H](CCCCNC(=O)CCC(=O)NCCC[C@@H](NC(=O)CC[C@H](NC(=O)N[C@@H](CCC(=O)O)C(=O)O)C(=O)O)C(=O)O)C(=O)O)cc1)C(C)(C)C.[177Lu+3]` [^177Lu-rhPSMA-10.1] as the compound, how does the “Mean (SD) Absorbed Dose, adrenals” value (All Cycles) read?
A: 0.010 (0.018) Gy/GBq

Q: And the “Mean (SD) Absorbed Dose, bladder wall” value (All Cycles)?
A: 0.018 (0.010) Gy/GBq

Q: And the “Mean (SD) Absorbed Dose, bone marrow (image-based)” value (All Cycles)?
A: 0.011 Gy/GBq and 0.011 (0.020) Gy/GBq

Q: And the “Mean (SD) Absorbed Dose, brain” value (All Cycles)?
A: 0.003 (0.004) Gy/GBq

Q: And the “Mean (SD) Absorbed Dose, gall bladder wall” value (All Cycles)?
A: 0.004 (0.002) Gy/GBq

Q: What about the “Mean (SD) Absorbed Dose, heart” value (All Cycles) of the same compound?
A: 0.014 (0.003) Gy/GBq

Q: What about the “Mean (SD) Absorbed Dose, intestine” value (All Cycles) of the same compound?
A: 0.002 (0.001) Gy/GBq

Q: And the “Mean (SD) Absorbed Dose, kidneys” value (All Cycles)?
A: 0.297 (0.098) Gy/GBq

Q: And the “Mean (SD) Absorbed Dose, lacrimal glands” value (All Cycles)?
A: 0.611 (0.329) Gy/GBq

Q: And the “Mean (SD) Absorbed Dose, liver” value (All Cycles)?
A: 0.035 (0.018) Gy/GBq

Q: What about the “Mean (SD) Absorbed Dose, lungs” value (All Cycles) of the same compound?
A: 0.049 (0.055) Gy/GBq

Q: What about the “Mean (SD) Absorbed Dose, pancreas” value (All Cycles) of the same compound?
A: 0.002 (0.001) Gy/GBq

Q: What about the “Mean (SD) Absorbed Dose, prostate” value (All Cycles) of the same compound?
A: 0.003 (0.002) Gy/GBq

Q: What about the “Mean (SD) Absorbed Dose, salivary glands” value (All Cycles) of the same compound?
A: 0.134 (0.077) Gy/GBq

Q: What about the “Mean (SD) Absorbed Dose, spleen” value (All Cycles) of the same compound?
A: 0.034 (0.019) Gy/GBq

Q: And the “Mean (SD) Absorbed Dose, stomach wall” value (All Cycles)?
A: 0.004 (0.003) Gy/GBq

Q: And the “Mean (SD) Absorbed Dose, ureters” value (All Cycles)?
A: 0.002 (0.001) Gy/GBq

Q: What about the “Cumulative image-based absorbed dose, bone marrow, range across patients” value [1] of the same compound?
A: 0.14–0.87 Gy

Q: What about the “Cumulative image-based absorbed dose, salivary glands, range across patients” value [1] of the same compound?
A: 1.25–5.53 Gy

Q: And the “Cumulative image-based absorbed dose, bone marrow, range across patients” value [2]?
A: 0.03–0.42 Gy

Q: What about the “Cumulative image-based absorbed dose, salivary glands, range across patients” value [2] of the same compound?
A: 0.79–3.40 Gy

Q: What about the “Mean (SD) Absorbed Dose, adrenals” value (Cycle 1, 13 patients) of the same compound?
A: 0.007 (0.002) Gy/GBq

Q: And the “Mean (SD) Absorbed Dose, bladder wall” value (Cycle 1, 13 patients)?
A: 0.018 (0.013) Gy/GBq

Q: And the “Mean (SD) Absorbed Dose, bone marrow (image-based)” value (Cycle 1, 13 patients)?
A: 0.011 (0.010) Gy/GBq

Q: And the “Mean (SD) Absorbed Dose, brain” value (Cycle 1, 13 patients)?
A: 0.002 (0.001) Gy/GBq

Q: And the “Mean (SD) Absorbed Dose, gall bladder wall” value (Cycle 1, 13 patients)?
A: 0.004 (0.002) Gy/GBq

Q: And the “Mean (SD) Absorbed Dose, heart” value (Cycle 1, 13 patients)?
A: 0.013 (0.004) Gy/GBq

Q: What about the “Mean (SD) Absorbed Dose, intestine” value (Cycle 1, 13 patients) of the same compound?
A: 0.002 (0.001) Gy/GBq

Q: And the “Mean (SD) Absorbed Dose, kidneys” value (Cycle 1, 13 patients)?
A: 0.266 Gy/GBq and 0.27 Gy/GBq and 0.266 (0.075) Gy/GBq

Q: What about the “Mean (SD) Absorbed Dose, lacrimal glands” value (Cycle 1, 13 patients) of the same compound?
A: 0.568 (0.348) Gy/GBq

Q: And the “Mean (SD) Absorbed Dose, liver” value (Cycle 1, 13 patients)?
A: 0.034 (0.021) Gy/GBq

Q: What about the “Mean (SD) Absorbed Dose, lungs” value (Cycle 1, 13 patients) of the same compound?
A: 0.058 (0.072) Gy/GBq

Q: What about the “Mean (SD) Absorbed Dose, pancreas” value (Cycle 1, 13 patients) of the same compound?
A: 0.002 (0.001) Gy/GBq

Q: What about the “Mean (SD) Absorbed Dose, prostate” value (Cycle 1, 13 patients) of the same compound?
A: 0.003 (0.002) Gy/GBq

Q: And the “Mean (SD) Absorbed Dose, salivary glands” value (Cycle 1, 13 patients)?
A: 0.130 Gy/GBq and 0.13 Gy/GBq and 0.130 (0.068) Gy/GBq

Q: And the “Mean (SD) Absorbed Dose, spleen” value (Cycle 1, 13 patients)?
A: 0.034 (0.023) Gy/GBq

Q: And the “Mean (SD) Absorbed Dose, stomach wall” value (Cycle 1, 13 patients)?
A: 0.005 (0.005) Gy/GBq

Q: What about the “Mean (SD) Absorbed Dose, ureters” value (Cycle 1, 13 patients) of the same compound?
A: 0.002 (0.001) Gy/GBq

Q: What about the “Cumulative Absorbed Dose, Bone Marrow” value [3] of the same compound?
A: 0.14 Gy

Q: What about the “Cumulative Absorbed Dose, Kidney” value [3] of the same compound?
A: 8.20 Gy

Q: What about the “Cumulative Absorbed Dose, Salivary Glands” value [3] of the same compound?
A: 5.53 Gy

Q: And the “Cumulative Absorbed Dose, Bone Marrow, % of dose limit” value [3]?
A: 7.0%

Q: What about the “Cumulative Absorbed Dose, Kidney, % of dose limit” value [3] of the same compound?
A: 36%

Q: And the “Cumulative Absorbed Dose, Salivary Glands, % of dose limit” value [3]?
A: 23%

Q: What about the “Cumulative Absorbed Dose, Bone Marrow” value [4] of the same compound?
A: 0.14 Gy

Q: And the “Cumulative Absorbed Dose, Kidney” value [4]?
A: 5.86 Gy

Q: What about the “Cumulative Absorbed Dose, Salivary Glands” value [4] of the same compound?
A: 1.25 Gy

Q: And the “Cumulative Absorbed Dose, Bone Marrow, % of dose limit” value [4]?
A: 7.0%

Q: What about the “Cumulative Absorbed Dose, Kidney, % of dose limit” value [4] of the same compound?
A: 25%

Q: And the “Cumulative Absorbed Dose, Salivary Glands, % of dose limit” value [4]?
A: 5.2%

Q: And the “Cumulative Absorbed Dose, Bone Marrow” value [5]?
A: 0.87 Gy

Q: What about the “Cumulative Absorbed Dose, Kidney” value [5] of the same compound?
A: 6.15 Gy

Q: What about the “Cumulative Absorbed Dose, Salivary Glands” value [5] of the same compound?
A: 2.96 Gy

Q: What about the “Cumulative Absorbed Dose, Bone Marrow, % of dose limit” value [5] of the same compound?
A: 44%

Q: What about the “Cumulative Absorbed Dose, Kidney, % of dose limit” value [5] of the same compound?
A: 27%

Q: What about the “Cumulative Absorbed Dose, Salivary Glands, % of dose limit” value [5] of the same compound?
A: 12%

Q: And the “Cumulative Absorbed Dose, Bone Marrow” value [6]?
A: 0.13 Gy

Q: What about the “Cumulative Absorbed Dose, Kidney” value [6] of the same compound?
A: 8.33 Gy

Q: And the “Cumulative Absorbed Dose, Salivary Glands” value [6]?
A: 2.87 Gy

From article PMC12491383, “Organ and tumour dosimetry of ^177Lu-rhPSMA-10.1, a novel PSMA-targeted therapy: results from a Phase I trial” (European Journal of Nuclear Medicine and Molecular Imaging, 2025)
